From patent US9963467B2, “Boronic acid derivatives and therapeutic uses thereof” (Rempex Pharmaceuticals, Inc., priority 2014, dated 2018)

What was measured:
CTX-M-14 = CTX-M-14 (Escherichia coli, UniProt Q9L5C7); assay: Ki, nitrocefin cleavage by purified enzyme, CTX-M-14; type: biochemical; conditions: nitrocefin reporter substrate; read-out: Ki (CTX-M-14, NCF)
Summary of the method: (§1)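 Readout: nitrocefin hydrolysis, A490 recorded every 10 sec over 10 min. Enzyme and inhibitor (varied concentrations) preincubated 10 min, RT, in reaction buffer before substrate addition.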

EC1010 (CMY-6) [1] = assay: Tigemonam potentiation (MPC@4), EC1010; type: cell-based; conditions: BLI with tigemonam at 4 μg/mL
KP1086 (OXA-48) = assay: Biapenem potentiation (MPC@1), KP1086; conditions: BLI with biapenem at 1 μg/mL
ECL1002 [2] = assay: Aztreonam potentiation (MPC@4), ECL1002; type: cell-based; conditions: BLI with aztreonam at 4 μg/mL
ec302 (TEM-10) [3] = assay: Tigemonam potentiation (MPC@4), ec302; type: cell-based
ECL1002 [4] = assay: Tigemonam potentiation (MPC@4), ECL1002; type: cell-based; conditions: BLI with tigemonam at 4 μg/mL
KP1004 (KPC-2) [5] = assay: Biapenem potentiation (MPC@1), KP1004; conditions: BLI with biapenem at 1 μg/mL
Pa AmpC = Pa AmpC (Pseudomonas aeruginosa, UniProt P24735); assay: Ki, nitrocefin cleavage by purified enzyme, Pa AmpC; type: biochemical; conditions: nitrocefin reporter substrate; read-out: Ki (Pa AmpC, NCF)
Summary of the method: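 Purified enzymes are exposed to inhibitor concentrations in reaction buffer for 10 min at room temperature. Nitrocefin is then added. Cleavage is read at 490 nm every 10 sec for 10 min, giving Ki.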

ec308 (SHV-5) = assay: Tigemonam potentiation (MPC@4), ec308; type: cell-based
KP1009 (CTX-M-15) [6] = assay: organism not typed; type: cell-based
OXA-48 = OXA-48 (Klebsiella pneumoniae, UniProt Q6XEC0); assay: Ki, nitrocefin cleavage by purified enzyme, OXA-48; type: biochemical; conditions: nitrocefin reporter substrate; read-out: Ki (OXA-48, NCF)
Summary of the method: as §1

SHV-12 = SHV-12 (Klebsiella pneumoniae, UniProt P0AD64, E235K/G234S/L31Q); assay: Ki, nitrocefin cleavage by purified enzyme, SHV-12; type: biochemical; conditions: nitrocefin reporter substrate; read-out: Ki (SHV-12, NCF)
Summary of the method: as §1

EC1010 (CMY-6) [7] = assay: organism not typed; type: cell-based
KP1010 (SHV-12) = assay: Tigemonam potentiation (MPC@4), KP1010; type: cell-based
ec302 (TEM-10) [8] = assay: Aztreonam potentiation (MPC@4), ec302; type: cell-based; conditions: BLI with aztreonam at 4 μg/mL
KPC-2 = KPC-2 (Klebsiella pneumoniae, UniProt Q9F663); assay: Ki, nitrocefin cleavage by purified enzyme, KPC-2; type: biochemical; conditions: nitrocefin reporter substrate; read-out: Ki (KPC-2, NCF)
Summary of the method: as §1

KP1005 (CTX-M-14) [9] = assay: Tigemonam potentiation (MPC@4), KP1005; type: cell-based; conditions: BLI with tigemonam at 4 μg/mL
KP1009 (CTX-M-15) [10] = assay: Tigemonam potentiation (MPC@4), KP1009; type: cell-based; conditions: BLI with tigemonam at 4 μg/mL
KP1004 (KPC-2) [11] = assay: Aztreonam potentiation (MPC@4), KP1004; type: cell-based; conditions: BLI with aztreonam at 4 μg/mL
P99 = P99 (Enterobacter cloacae, UniProt P05364); assay: Ki, nitrocefin cleavage by purified enzyme, P99; type: biochemical; conditions: nitrocefin reporter substrate; read-out: Ki (P99, NCF)
Summary of the method: as §1

KP1005 (CTX-M-14) [12] = assay: Aztreonam potentiation (MPC@4), KP1005; type: cell-based; conditions: BLI with aztreonam at 4 μg/mL

Sequence of P99 (P05364 21-381): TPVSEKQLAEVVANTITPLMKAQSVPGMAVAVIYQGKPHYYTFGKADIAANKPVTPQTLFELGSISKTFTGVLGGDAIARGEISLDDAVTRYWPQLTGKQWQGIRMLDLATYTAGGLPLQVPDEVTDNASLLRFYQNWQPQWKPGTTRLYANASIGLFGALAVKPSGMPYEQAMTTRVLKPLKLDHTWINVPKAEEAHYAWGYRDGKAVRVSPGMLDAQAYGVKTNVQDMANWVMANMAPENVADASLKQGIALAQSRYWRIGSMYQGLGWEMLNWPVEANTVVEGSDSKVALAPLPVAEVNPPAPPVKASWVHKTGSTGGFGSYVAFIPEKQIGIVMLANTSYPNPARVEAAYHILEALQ
Sequence of KPC-2 (Q9F663 25-293, looked up, species assumed): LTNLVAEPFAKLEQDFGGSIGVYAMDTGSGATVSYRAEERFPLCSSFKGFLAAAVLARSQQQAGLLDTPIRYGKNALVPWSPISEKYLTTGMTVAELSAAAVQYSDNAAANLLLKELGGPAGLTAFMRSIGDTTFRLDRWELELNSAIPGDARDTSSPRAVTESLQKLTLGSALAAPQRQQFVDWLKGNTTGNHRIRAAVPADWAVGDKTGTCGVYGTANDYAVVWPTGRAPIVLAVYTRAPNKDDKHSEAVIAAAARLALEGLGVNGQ
Sequence of SHV-12 (P0AD64 22-286 L31Q/G234S/E235K): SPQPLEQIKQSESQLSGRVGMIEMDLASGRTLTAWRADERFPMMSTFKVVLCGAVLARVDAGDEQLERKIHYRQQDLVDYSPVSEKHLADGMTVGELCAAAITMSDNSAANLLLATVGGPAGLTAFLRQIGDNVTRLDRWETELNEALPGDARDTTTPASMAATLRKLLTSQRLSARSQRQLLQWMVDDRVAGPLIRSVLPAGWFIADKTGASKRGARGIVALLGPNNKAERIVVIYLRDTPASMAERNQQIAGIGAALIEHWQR
Sequence of OXA-48 (Q6XEC0 23-265, looked up, species assumed): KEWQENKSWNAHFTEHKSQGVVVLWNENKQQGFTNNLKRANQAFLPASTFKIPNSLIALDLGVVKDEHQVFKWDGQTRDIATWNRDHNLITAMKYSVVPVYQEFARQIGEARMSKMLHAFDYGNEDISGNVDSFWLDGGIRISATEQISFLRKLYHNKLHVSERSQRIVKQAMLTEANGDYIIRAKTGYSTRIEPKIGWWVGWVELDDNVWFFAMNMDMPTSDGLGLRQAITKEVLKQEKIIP
Sequence of Pa AmpC (P24735 27-397): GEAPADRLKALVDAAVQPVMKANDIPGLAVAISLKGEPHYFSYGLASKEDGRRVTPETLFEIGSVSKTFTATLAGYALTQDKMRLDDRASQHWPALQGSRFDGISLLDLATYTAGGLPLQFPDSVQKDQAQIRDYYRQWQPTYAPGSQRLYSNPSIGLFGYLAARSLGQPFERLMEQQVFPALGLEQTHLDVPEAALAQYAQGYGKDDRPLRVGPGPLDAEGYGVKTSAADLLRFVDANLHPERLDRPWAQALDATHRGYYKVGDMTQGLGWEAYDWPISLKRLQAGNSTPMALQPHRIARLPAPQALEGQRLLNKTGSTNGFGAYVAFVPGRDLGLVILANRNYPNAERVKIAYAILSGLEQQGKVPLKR
Sequence of CTX-M-14 (Q9L5C7 29-291): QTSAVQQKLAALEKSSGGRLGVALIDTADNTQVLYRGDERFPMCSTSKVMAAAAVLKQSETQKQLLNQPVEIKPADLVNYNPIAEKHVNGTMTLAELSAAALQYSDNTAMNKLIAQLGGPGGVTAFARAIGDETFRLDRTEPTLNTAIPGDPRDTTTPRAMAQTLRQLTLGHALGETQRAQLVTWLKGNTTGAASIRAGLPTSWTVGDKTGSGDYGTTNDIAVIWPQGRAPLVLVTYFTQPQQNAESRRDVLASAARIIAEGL

Structure (SMILES)	Ki (CTX-M-14) [nM]	TIG MPC4 CMY-6 EC1010 (EC1010 (CMY-6) [1])	BPM MPC1 OXA-48 KP1086 (KP1086 (OXA-48))	AZT MPC4 ECL1002 (ECL1002 [2])	TIG MPC4 TEM-10 ec302 (ec302 (TEM-10) [3])	TIG MPC4 ECL1002 (ECL1002 [4])	BPM MPC1 KP1004 KPC-2 (KP1004 (KPC-2) [5])	Ki (Pa AmpC) [nM]	TIG MPC4 SHV-5 ec308 (ec308 (SHV-5))	AZT MPC4 CTX-M-15 KP1009 (KP1009 (CTX-M-15) [6])	Ki (OXA-48) [nM]	Ki (SHV-12) [nM]	AZT MPC4 CMY-6 EC1010 (EC1010 (CMY-6) [7])	TIG MPC4 SHV-12 KP1010 (KP1010 (SHV-12))	AZT MPC4 TEM-10 ec302 (ec302 (TEM-10) [8])	Ki (KPC-2) [nM]	TIG MPC4 CTX-M-14 KP1005 (KP1005 (CTX-M-14) [9])	TIG MPC4 CTX-M-15 KP1009 (KP1009 (CTX-M-15) [10])	AZT MPC4 KPC-2 KP1004 (KP1004 (KPC-2) [11])	Ki (P99) [nM]	other results
CSCC(=O)N[C@H]1Cc2ccc(O)c(C(=O)O)c2OB1O [Compound 34, (R)-2,7-dihydroxy-3-(2-(methylthio)acetamido)-3,4-dihydro-2H-benzo[e][1,2]oxaborinine-8-carboxylic acid]	< 1	X (MIC of less than 1 μg/mL)	Y (MIC of 1 μg/mL to 10 μg/mL)	Y (MIC of 1 μg/mL to 10 μg/mL)	Y (key: X: MIC of less than 1 ng/mL; Y: MIC of 1 μg/mL to 10 μg/mL; Z: MIC of greater than 10 μg/mL)	X (MIC of less than 1 μg/mL)	X (MIC of less than 1 μg/mL)	> 10	X (key: X: MIC of less than 1 μg/mL; Y: MIC of 1 μg/mL to 10 μg/mL; Z: MIC of greater than 10 μg/mL)	Y (key: X: MIC of less than 1 ng/mL; Y: MIC of 1 μg/mL to 10 μg/mL; Z: MIC of greater than 10 μg/mL)	< 1	< 1	Y (key: X: MIC of less than 1 ng/mL; Y: MIC of 1 μg/mL to 10 μg/mL; Z: MIC of greater than 10 μg/mL)	X (key: X: MIC of less than 1 μg/mL; Y: MIC of 1 μg/mL to 10 μg/mL; Z: MIC of greater than 10 μg/mL)	Y (MIC of 1 μg/mL to 10 μg/mL)	> 10	X (MIC of less than 1 μg/mL)	Y (MIC of 1 μg/mL to 10 μg/mL)	Y (MIC of 1 μg/mL to 10 μg/mL)	1 to 10	–
CSCC(=O)N[C@H]1Cc2ccc(OCCO)c(C(=O)O)c2OB1O [Compound 20, (R)-2-hydroxy-7-(2-hydroxyethoxy)-3-(2-(methylthio)acetamido)-3,4-dihydro-2H-benzo[e][1,2]oxaborinine-8-carboxylic acid]	< 1	X (MIC of less than 1 μg/mL)	Z (MIC of greater than 10 μg/mL)	Y (MIC of 1 μg/mL to 10 μg/mL)	Z (key: X: MIC of less than 1 ng/mL; Y: MIC of 1 μg/mL to 10 μg/mL; Z: MIC of greater than 10 μg/mL)	X (MIC of less than 1 μg/mL)	X (MIC of less than 1 μg/mL)	> 10	X (key: X: MIC of less than 1 μg/mL; Y: MIC of 1 μg/mL to 10 μg/mL; Z: MIC of greater than 10 μg/mL)	Y (key: X: MIC of less than 1 ng/mL; Y: MIC of 1 μg/mL to 10 μg/mL; Z: MIC of greater than 10 μg/mL)	< 1	< 1	Y (key: X: MIC of less than 1 ng/mL; Y: MIC of 1 μg/mL to 10 μg/mL; Z: MIC of greater than 10 μg/mL)	X (key: X: MIC of less than 1 μg/mL; Y: MIC of 1 μg/mL to 10 μg/mL; Z: MIC of greater than 10 μg/mL)	Y (MIC of 1 μg/mL to 10 μg/mL)	> 10	Y (MIC of 1 μg/mL to 10 μg/mL)	X (MIC of less than 1 μg/mL)	Y (MIC of 1 μg/mL to 10 μg/mL)	> 10	–
CSCC(=O)N[C@H]1Cc2ccc(SCCO)c(C(=O)O)c2OB1O [Compound 23, (R)-2-hydroxy-7-(2-hydroxyethylthio)-3-(2-(methylthio)acetamido)-3,4-dihydro-2H-benzo[e][1,2]oxaborinine-8-carboxylic acid]	< 1	Y (MIC of 1 μg/mL to 10 μg/mL)	Z (MIC of greater than 10 μg/mL)	Y (MIC of 1 μg/mL to 10 μg/mL)	Y (key: X: MIC of less than 1 ng/mL; Y: MIC of 1 μg/mL to 10 μg/mL; Z: MIC of greater than 10 μg/mL)	X (MIC of less than 1 μg/mL)	X (MIC of less than 1 μg/mL)	> 10	X (key: X: MIC of less than 1 μg/mL; Y: MIC of 1 μg/mL to 10 μg/mL; Z: MIC of greater than 10 μg/mL)	Y (key: X: MIC of less than 1 ng/mL; Y: MIC of 1 μg/mL to 10 μg/mL; Z: MIC of greater than 10 μg/mL)	< 1	< 1	Y (key: X: MIC of less than 1 ng/mL; Y: MIC of 1 μg/mL to 10 μg/mL; Z: MIC of greater than 10 μg/mL)	X (key: X: MIC of less than 1 μg/mL; Y: MIC of 1 μg/mL to 10 μg/mL; Z: MIC of greater than 10 μg/mL)	Y (MIC of 1 μg/mL to 10 μg/mL)	> 10	X (MIC of less than 1 μg/mL)	Y (MIC of 1 μg/mL to 10 μg/mL)	Y (MIC of 1 μg/mL to 10 μg/mL)	> 10	–
O=C(O)CC(=O)N[C@H]1Cc2ccc(F)c(C(=O)O)c2OB1O [Compound 4, (R)-3-(2-carboxyacetamido)-7-fluoro-2-hydroxy-3,4-dihydro-2H-benzo[e][1,2]oxaborinine-8-carboxylic acid]	< 1	X (MIC of less than 1 μg/mL)	Z (MIC of greater than 10 μg/mL)	Y (MIC of 1 μg/mL to 10 μg/mL)	Z (key: X: MIC of less than 1 ng/mL; Y: MIC of 1 μg/mL to 10 μg/mL; Z: MIC of greater than 10 μg/mL)	X (MIC of less than 1 μg/mL)	X (MIC of less than 1 μg/mL)	> 10	Y (key: X: MIC of less than 1 ng/mL; Y: MIC of 1 μg/mL to 10 μg/mL; Z: MIC of greater than 10 μg/mL)	–	< 1	< 1	Y (key: X: MIC of less than 1 ng/mL; Y: MIC of 1 μg/mL to 10 μg/mL; Z: MIC of greater than 10 μg/mL)	Y (key: X: MIC of less than 1 ng/mL; Y: MIC of 1 μg/mL to 10 μg/mL; Z: MIC of greater than 10 μg/mL)	Y (MIC of 1 μg/mL to 10 μg/mL)	> 10	Y (MIC of 1 μg/mL to 10 μg/mL)	X (MIC of less than 1 μg/mL)	Y (MIC of 1 μg/mL to 10 μg/mL)	> 10	AZT MPC4 CTX-M-14 KP1005 (KP1005 (CTX-M-14) [12]): Y (MIC of 1 μg/mL to 10 μg/mL)
COc1ccc2c(c1C(=O)O)OB(O)[C@@H](NC(=O)c1nnc(N)s1)C2 [Compound 28, (R)-3-(5-amino-1,3,4-thiadiazole-2-carboxamido)-2-hydroxy-7-methoxy-3,4-dihydro-2H-benzo[e][1,2]oxaborinine-8-carboxylic acid]	< 1	X (MIC of less than 1 μg/mL)	Z (MIC of greater than 10 μg/mL)	Y (MIC of 1 μg/mL to 10 μg/mL)	Y (key: X: MIC of less than 1 ng/mL; Y: MIC of 1 μg/mL to 10 μg/mL; Z: MIC of greater than 10 μg/mL)	Y (MIC of 1 μg/mL to 10 μg/mL)	Y (MIC of 1 μg/mL to 10 μg/mL)	1 to 10	X (key: X: MIC of less than 1 μg/mL; Y: MIC of 1 μg/mL to 10 μg/mL; Z: MIC of greater than 10 μg/mL)	Y (key: X: MIC of less than 1 ng/mL; Y: MIC of 1 μg/mL to 10 μg/mL; Z: MIC of greater than 10 μg/mL)	< 1	< 1	–	X (key: X: MIC of less than 1 μg/mL; Y: MIC of 1 μg/mL to 10 μg/mL; Z: MIC of greater than 10 μg/mL)	Y (MIC of 1 μg/mL to 10 μg/mL)	> 10	Y (MIC of 1 μg/mL to 10 μg/mL)	Y (MIC of 1 μg/mL to 10 μg/mL)	Y (MIC of 1 μg/mL to 10 μg/mL)	1 to 10	AZT MPC4 CTX-M-14 KP1005 (KP1005 (CTX-M-14) [12]): Y (MIC of 1 μg/mL to 10 μg/mL)
